Tests used:
Assay type in all cases: cell-based, mouse
[1] = test system: Il33 expression induced by Poly (I:C) in Pam212 cells; experiment: Il33 RNA by qPCR in Poly (I:C)-treated Pam212 cells
Description: Pam212 cells were grown at 37° C. in DMEM (Thermo Fisher Scientific, Waltham, Mass., catalog no. 11995065) supplemented with 10% fetal bovine serum (Thermo Fisher Scientific, catalog no. 26140079), 1× penicillin-streptomycin-glutamine (Thermo Fisher Scientific, catalog no. 10378016), 1×MEM non-essential amino acids solution (Thermo Fisher Scientific, catalog no. 11140050), 1×HEPES (Thermo Fisher Scientific, catalog no. 15630080) and 0.1% 2-Mercaptoethanol (Thermo Fisher Scientific, catalog no. 21985023). […]
Mouse dorsal skin samples were homogenized and lysed in RLT lysis solution (QIAGEN, catalog no. 79216)/0.1% MeOH using Mini-BeadBeater-8 (BioSpec Products, Inc., Bartlesville, Okla.). Total RNA was extracted using an RNeasy micro kit and quantified using NanoDrop ND-1100 (NanoDrop Technologies, Wilmington, Del.). cDNA samples were synthesized from 1 μg of total RNA using Invitrogen SuperScripts III Reverse Transcriptase (Thermo Fisher Scientific, catalog no. 18080085). Expression levels of all cDNA samples were determined with LightCycler 480 system (Roche Molecular Systems Inc., Pleasanton, Calif.) using TaqMan Universal Master Mix II (Thermo Fisher Scientific, catalog no. 44-400-40). […]

[2] = test system: p-IRF3 bindings to Il33 promoter region; experiment: ChIP assay, p-IRF3 binding to Il33 promoter region in Pam212 cells; conditions: compared to only Poly (I:C) treated group
Description: Pam212 cells that had been transfected with plasmids were fixed in 1% formaldehyde (Millipore Sigma, catalog no. F8775) for 10 min and were washed by cold PBS. Cells were lysed with buffer contained with 2.5% of glycerol, 50 mM HEPES (pH 7.5), 150 mM NaCl, 0.5 mM EDTA, 0.5% NP-40 and 0.25% Triton X-100. After centrifugation at 2,000 rpm, cells lysate were resuspended in buffer A contained with 1 mM Tris/HCl (pH 7.9), 20 mM NaCl and 0.5 mM EDTA and incubated at room temperature for 10 min. Following the second centrifugation at 2,000 rpm, cells were sonicated in sonication buffer containing 10 mM HEPES, 1 mM EDTA and 0.5% SDS for 30 min to achieve chromatin fragmentation. Following centrifugation at 13,000 rpm, proteins were immunoprecipitated with HA antibody at 4° C. overnight. Next day, the samples were incubated with 30 μL 50% slurry of ChIP-Grade Protein G agarose beads (Cell Signaling Technology, catalog no. 9007S) for 2 hours. Samples were precipitated, washed three times with wash buffer containing 20 mM Tris/HCl (pH 7.9), 10 mM NaCl, 2 mM EDTA, 0.1% SDS and Triton X-100. After the last wash step, samples were eluted with 100 μL of TE buffer contained with 100 mM Tris/HCl (pH 8), 1 mM EDTA and 1% SDS for three times. […] Precipitated DNA was purified by CMP DNA Clean & Concentrator (ZYMO research, Irvine, Calif., catalog no. D5205) and subjected to quantitative PCR. […]

[3] = test system: IRF3 nuclear localization; experiment: IRF3 nuclear immunofluorescence staining in poly (I:C) treated Pam212 cells; conditions: compared to only Poly (I:C) treated group
Description: For immunofluorescence staining, Pam212 cells were permeated with 1×PBS supplemented with 0.2% Triton X-100 for 5 min. Slides were washed three times for three minutes each in 1×PBS with 0.1% TWEEN20. Slides were blocked with 1% bovine serum albumin and 5% goat serum for 1 hour. The slides were stained overnight at 4° C. with IRF3 antibody. The following day, slides were washed as above and incubated for two hours at room temperature with secondary antibodies conjugated to fluorochromes. Next, slides were incubated with 1:2000 DAPI (Thermo Fisher Scientific, catalog no. D3571) for five minutes at room temperature, then washed as above. Slides were mounted with Prolong Gold Antifade Reagent (Thermo Fisher Scientific, catalog no. P36930).
Next, to investigate the mechanism by which pitavastatin can block IL-33 expression, we first confirmed p-IRF3 expression level because IRF3 is a transcription factor of IL-33 expression. […] However, pitavastatin treatment with Poly (I:C) to Pam212 cells, level of p-IRF3 was decreased (FIG. 11A). […] After IRF3 are phosphorylated by upstream, p-IRF3 can translocate to nucleus as a transcription factor.

For `O=C(O)C[C@H](O)C[C@H](O)/C=C/c1c(C2CC2)nc2ccccc2c1-c1ccc(F)cc1` [pitavastatin], the “Il33 RNA level” value [1] was “decreased”, the “Poly (I:C) induced p-IRF3 bindings to Il33 promoter region” value [2] was “significantly reduced” and the IRF3 nuclear localization [3] was “blocked”.

Reference: patent US20230255954A1, “INTERLEUKIN 33 (IL-33) INHIBITION FOR TREATMENT OF CANCER, FIBROSIS AND INFLAMMATION” (The General Hospital Corporation, priority 2020, published 2023)
